Data reported in ChEMBL document CHEMBL1201861, “Genomics of Drug Sensitity in Cancer screening data, Wellcome Trust Sanger Institute”.

How the values were obtained:
[1] = test system: Ca9-22; experiment: cells; format: functional, cell-based; conditions: Homo sapiens;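 note: growth inhibition of Ca9-22 cells, read out with a cell viability assay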
Description: SANGER: Inhibition of human Ca9-22 cell growth in a cell viability assay.

[2] = test system: CaR-1; experiment: cells; format: functional, cell-based; conditions: Homo sapiens;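 note: growth inhibition of human CaR-1 cancer cells, read out with a cell viability assay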
Description: SANGER: Inhibition of human CaR-1 cell growth in a cell viability assay.

[3] = test system: Capan-2; experiment: cells; format: functional, cell-based; conditions: Homo sapiens;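 note: Capan-2 cell growth inhibition, read out with a viability assay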
Description: SANGER: Inhibition of human Capan-2 cell growth in a cell viability assay.

[4] = test system: Daoy; experiment: cells; format: functional, cell-based; conditions: Homo sapiens;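 note: daoy cell growth inhibition, read out as cell viability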
Description: SANGER: Inhibition of human Daoy cell growth in a cell viability assay.

[5] = test system: H4; experiment: cells; format: functional, cell-based; conditions: Homo sapiens
Description: SANGER: Inhibition of human H4 cell growth in a cell viability assay.

[6] = test system: HCC1806; experiment: cells; format: functional, cell-based; conditions: Homo sapiens;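 note: growth inhibition of the cancer cell line, determined with a cell viability assay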
Description: SANGER: Inhibition of human HCC1806 cell growth in a cell viability assay.

[7] = test system: HCC38; experiment: cells; format: functional, cell-based; conditions: Homo sapiens;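 note: cell viability assay on the human HCC38 cell line, with IC50 marking the concentration that inhibits cell growth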
Description: SANGER: Inhibition of human HCC38 cell growth in a cell viability assay.

[8] = test system: HCC70; experiment: cells; format: functional, cell-based; conditions: Homo sapiens;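 note: cell viability assay measuring how strongly the compound suppresses proliferation of HCC70 cells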
Description: SANGER: Inhibition of human HCC70 cell growth in a cell viability assay.

[9] = test system: HEC-1; experiment: cells; format: functional, cell-based; conditions: Homo sapiens;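 note: growth inhibition of the cell line, read out with a cell viability assay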
Description: SANGER: Inhibition of human HEC-1 cell growth in a cell viability assay.

[10] = test system: HOP-92; experiment: cells; format: functional, cell-based; conditions: Homo sapiens;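 note: cell viability readout, with IC50 reflecting inhibition of HOP-92 cell growth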
Description: SANGER: Inhibition of human HOP-92 cell growth in a cell viability assay.

[11] = test system: HOS; experiment: cells; format: functional, cell-based; conditions: Homo sapiens;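 note: growth inhibition of human HOS cells, read out with a cell viability assay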
Description: SANGER: Inhibition of human HOS cell growth in a cell viability assay.

[12] = test system: HT-1376; experiment: cells; format: functional, cell-based; conditions: Homo sapiens
Description: SANGER: Inhibition of human HT-1376 cell growth in a cell viability assay.

[13] = test system: HT-3; experiment: cells; format: functional, cell-based; conditions: Homo sapiens;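 note: growth inhibition measured with a cell viability readout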
Description: SANGER: Inhibition of human HT-3 cell growth in a cell viability assay.

[14] = test system: HuO-3N1; experiment: cells; format: functional, cell-based; conditions: Homo sapiens;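 note: cell viability readout used to measure how strongly compounds suppress proliferation of human HuO-3N1 cells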
Description: SANGER: Inhibition of human HuO-3N1 cell growth in a cell viability assay.

[15] = test system: KP-N-YN; experiment: cells; format: functional, cell-based; conditions: Homo sapiens;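 note: growth inhibition of KP-N-YN cells, read out with a cell viability assay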
Description: SANGER: Inhibition of human KP-N-YN cell growth in a cell viability assay.

[16] = test system: KU-19-19; experiment: cells; format: functional, cell-based; conditions: Homo sapiens
Description: SANGER: Inhibition of human KU-19-19 cell growth in a cell viability assay.

[17] = test system: KYSE-70 cell line; experiment: cells; format: functional, cell-based; conditions: Homo sapiens;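 note: cell viability assay read-out, with IC50 expressing suppression of KYSE-70 cell growth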
Description: SANGER: Inhibition of human KYSE-70 cell growth in a cell viability assay.

[18] = test system: LK-2; experiment: cells; format: functional, cell-based; conditions: Homo sapiens;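 note: growth inhibition of LK-2 cells, read out with a viability assay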
Description: SANGER: Inhibition of human LK-2 cell growth in a cell viability assay.

[19] = test system: M059J; experiment: cells; format: functional, cell-based; conditions: Homo sapiens;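 note: growth inhibition of M059J cells, read out with a cell viability assay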
Description: SANGER: Inhibition of human M059J cell growth in a cell viability assay.

[20] = test system: MDA-MB-453; experiment: cells; format: functional, cell-based; conditions: Homo sapiens
Description: SANGER: Inhibition of human MDA-MB-453 cell growth in a cell viability assay.

[21] = test system: NB17; experiment: cells; format: functional, cell-based, Homo sapiens; conditions: Homo sapiens, NB17;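 note: growth inhibition of NB17 cells, read out with a cell viability assay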
Description: SANGER: Inhibition of human NB17 cell growth in a cell viability assay.

[22] = test system: NB7; experiment: cells; format: functional, cell-based, Homo sapiens; conditions: Homo sapiens, NB7;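 note: growth inhibition of NB7 cells, read out with a cell viability assay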
Description: SANGER: Inhibition of human NB7 cell growth in a cell viability assay.

[23] = test system: NCI-H2052; experiment: cells; format: functional, cell-based; conditions: Homo sapiens;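 note: growth inhibition of NCI-H2052 cells, read out with a cell viability assay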
Description: SANGER: Inhibition of human NCI-H2052 cell growth in a cell viability assay.

[24] = test system: NCI-H2170; experiment: cells; format: functional, cell-based; conditions: Homo sapiens;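 note: cell viability assay measuring growth inhibition of human NCI-H2170 cancer cells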
Description: SANGER: Inhibition of human NCI-H2170 cell growth in a cell viability assay.

[25] = test system: NCI-H2228; experiment: cells; format: functional, cell-based; conditions: Homo sapiens;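 note: growth inhibition of human NCI-H2228 cells, read out by a cell viability assay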
Description: SANGER: Inhibition of human NCI-H2228 cell growth in a cell viability assay.

[26] = test system: PC-3; experiment: cells; format: functional, cell-based; conditions: Homo sapiens;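 note: cell viability assay measuring growth inhibition of PC-3 cells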
Description: SANGER: Inhibition of human PC-3 cell growth in a cell viability assay.

[27] = test system: PFSK-1; experiment: cells; format: functional, cell-based; conditions: Homo sapiens;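 note: cell viability assay measuring how strongly compounds suppress growth of human PFSK-1 cells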
Description: SANGER: Inhibition of human PFSK-1 cell growth in a cell viability assay.

[28] = test system: RT-112; experiment: cells; format: functional, cell-based; conditions: Homo sapiens
Description: SANGER: Inhibition of human RT-112 cell growth in a cell viability assay.

[29] = test system: SCC-4; experiment: cells; format: functional, cell-based; conditions: Homo sapiens;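 note: growth inhibition of human SCC-4 cells, read out as cell viability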
Description: SANGER: Inhibition of human SCC-4 cell growth in a cell viability assay.

[30] = test system: SK-MES-1; experiment: cells; format: functional, cell-based; conditions: Homo sapiens;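 note: growth inhibition of human SK-MES-1 cells, read out with a cell viability assay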
Description: SANGER: Inhibition of human SK-MES-1 cell growth in a cell viability assay.

[31] = test system: SW1417; experiment: cells; format: functional, cell-based; conditions: Homo sapiens;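 note: growth inhibition of human SW1417 cells, read out with a cell viability assay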
Description: SANGER: Inhibition of human SW1417 cell growth in a cell viability assay.

[32] = test system: T84; experiment: cells; format: functional, cell-based; conditions: Homo sapiens;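 note: growth inhibition measured with a cell viability readout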
Description: SANGER: Inhibition of human T84 cell growth in a cell viability assay.

[33] = test system: T98G; experiment: cells; format: functional, cell-based; conditions: Homo sapiens;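 note: growth inhibition of T98G cells, read out by a cell viability assay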
Description: SANGER: Inhibition of human T98G cell growth in a cell viability assay.

[34] = test system: BFTC-909; experiment: cells; format: functional, cell-based; conditions: Homo sapiens
Description: SANGER: Inhibition of human BFTC-909 cell growth in a cell viability assay.

[35] = test system: BHY; experiment: cells; format: functional, cell-based; conditions: Homo sapiens;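 note: cell growth inhibition read out by a viability assay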
Description: SANGER: Inhibition of human BHY cell growth in a cell viability assay.

[36] = test system: CAKI-1; experiment: cells; format: functional, cell-based; conditions: Homo sapiens;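 note: growth inhibition of CAKI-1 cells, measured by a cell viability assay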
Description: SANGER: Inhibition of human CAKI-1 cell growth in a cell viability assay.

[37] = test system: TYK-nu; experiment: cells; format: functional, cell-based; conditions: Homo sapiens;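 note: growth inhibition of human TYK-nu cells, read out by a cell viability assay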
Description: SANGER: Inhibition of human TYK-nu cell growth in a cell viability assay.

[38] = test system: A2058; experiment: cells; format: functional, cell-based; conditions: Homo sapiens;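 note: reduction of A2058 cell growth, read out with a viability assay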
Description: SANGER: Inhibition of human A2058 cell growth in a cell viability assay.

[39] = test system: ACHN; experiment: cells; format: functional, cell-based; conditions: Homo sapiens;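 note: cell viability read-out used to gauge how strongly growth of human ACHN cells is suppressed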
Description: SANGER: Inhibition of human ACHN cell growth in a cell viability assay.

[40] = test system: CPC-N; experiment: cells; format: functional, cell-based, Homo sapiens; conditions: Homo sapiens, CPC-N;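 note: growth inhibition of CPC-N cells, with a cell viability assay as the readout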
Description: SANGER: Inhibition of human CPC-N cell growth in a cell viability assay.

[41] = test system: EB-3; experiment: cells; format: functional, cell-based, Homo sapiens; conditions: Homo sapiens, EB-3;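 note: human EB-3 cells, growth inhibition read out via a cell viability assay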
Description: SANGER: Inhibition of human EB-3 cell growth in a cell viability assay.

[42] = test system: IMR-5; experiment: cells; format: functional, cell-based, Homo sapiens; conditions: Homo sapiens, IMR-5; read-out: IC50;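 note: growth inhibition of human IMR-5 cells, read out with a cell viability assay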
Description: SANGER: Inhibition of human IMR-5 cell growth in a cell viability assay.

[43] = test system: JIYOYE; experiment: cells; format: functional, cell-based, Homo sapiens; conditions: Homo sapiens, JIYOYE
Description: SANGER: Inhibition of human JiyoyeP-2003 cell growth in a cell viability assay.

[44] = test system: KARPAS-422; experiment: cells; format: functional, cell-based, Homo sapiens; conditions: Homo sapiens, KARPAS-422
Description: SANGER: Inhibition of human KARPAS-422 cell growth in a cell viability assay.

[45] = test system: Kasumi 1; experiment: cells; format: functional, cell-based, Homo sapiens; conditions: Homo sapiens, Kasumi 1;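 note: growth inhibition of human Kasumi-1 cells, read out by a cell viability assay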
Description: SANGER: Inhibition of human KASUMI-1 cell growth in a cell viability assay.

[46] = test system: LB647-SCLC; experiment: cells; format: functional, cell-based, Homo sapiens; conditions: Homo sapiens, LB647-SCLC;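 note: cell growth inhibition, read out by a viability assay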
Description: SANGER: Inhibition of human LB647-SCLC cell growth in a cell viability assay.

[47] = test system: LC4-1; experiment: cells; format: functional, cell-based, Homo sapiens; conditions: Homo sapiens, LC4-1;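 note: growth inhibition of LC4-1 cells, read out with a cell viability assay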
Description: SANGER: Inhibition of human LC4-1 cell growth in a cell viability assay.

[48] = test system: NB1; experiment: cells; format: functional, cell-based, Homo sapiens; conditions: Homo sapiens, NB1
Description: SANGER: Inhibition of human NB1 cell growth in a cell viability assay.

[49] = test system: NCI-H1436; experiment: cells; format: functional, cell-based, Homo sapiens; conditions: Homo sapiens, NCI-H1436;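 note: growth suppression of human NCI-H1436 cells, determined with a cell viability readout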
Description: SANGER: Inhibition of human NCI-H1436 cell growth in a cell viability assay.

[50] = test system: NCI-H1694; experiment: cells; format: functional, cell-based, Homo sapiens; conditions: Homo sapiens, NCI-H1694;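 note: cell viability assay measuring inhibition of growth in human NCI-H1694 cells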
Description: SANGER: Inhibition of human NCI-H1694 cell growth in a cell viability assay.

[51] = test system: NCI-H716; experiment: cells; format: functional, cell-based, Homo sapiens; conditions: Homo sapiens, NCI-H716;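 note: growth inhibition of human NCI-H716 cells, measured by a cell viability assay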
Description: SANGER: Inhibition of human NCI-H716 cell growth in a cell viability assay.

[52] = test system: NCI-H748; experiment: cells; format: functional, cell-based, Homo sapiens; conditions: Homo sapiens, NCI-H748;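 note: growth inhibition of NCI-H748 cells, measured by a cell viability assay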
Description: SANGER: Inhibition of human NCI-H748 cell growth in a cell viability assay.

[53] = test system: REH; experiment: cells; format: functional, cell-based, Homo sapiens; conditions: Homo sapiens, REH;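 note: growth inhibition of REH cells determined with a cell viability read-out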
Description: SANGER: Inhibition of human REH cell growth in a cell viability assay.

[54] = test system: RPMI-6666; experiment: cells; format: functional, cell-based, Homo sapiens; conditions: Homo sapiens, RPMI-6666
Description: SANGER: Inhibition of human RPMI-6666 cell growth in a cell viability assay.

[55] = test system: SU-DHL-1; experiment: SANGER: Inhibition of human SU-DHL-1 cell growth in a cell viability assay.; format: functional, cell-based; conditions: Homo sapiens, SU-DHL-1
[56] = test system: BC1 cell line; experiment: SANGER: Inhibition of human BC-1 cell growth in a cell viability assay.; format: functional, cell-based; conditions: Homo sapiens, BC1
[57] = test system: BC-3; experiment: cells; format: functional, cell-based, Homo sapiens; conditions: Homo sapiens, BC-3;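 note: cell viability assay measuring growth inhibition of human BC-3 cells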
Description: SANGER: Inhibition of human BC-3 cell growth in a cell viability assay.

[58] = test system: CESS; experiment: SANGER: Inhibition of human CESS cell growth in a cell viability assay.; format: functional, cell-based; conditions: Homo sapiens, CESS

For `NC1(c2ccc(-c3nc4ccn5c(=O)[nH]nc5c4cc3-c3ccccc3)cc2)CCC1` [MK-2206], the IC50 [1] was > 4 µM, the IC50 [2] was > 4 µM and the IC50 [3] was > 4 µM. For the same compound, the IC50 [4] was > 4 µM, the IC50 [5] was 3.46 µM and the IC50 [6] was > 4 µM. The IC50 [7] was > 4 µM, the IC50 [8] was 0.598 µM and the IC50 [9] was > 4 µM. For the same compound, the IC50 [10] was 0.872 µM, the IC50 [11] was 1.5 µM and the IC50 [12] was > 4 µM. The IC50 [13] was > 4 µM, the IC50 [14] was > 4 µM and the IC50 [15] was > 4 µM. The IC50 [16] was > 4 µM, the IC50 [17] was > 4 µM and the IC50 [18] was > 4 µM. For the same compound, the IC50 [19] was > 4 µM, the IC50 [20] was > 4 µM and the IC50 [21] was > 4 µM. The IC50 [22] was 0.824 µM, the IC50 [23] was > 4 µM and the IC50 [24] was > 4 µM. For the same compound, the IC50 [25] was 2.32 µM, the IC50 [26] was > 4 µM and the IC50 [27] was > 4 µM. The IC50 [28] was 3.52 µM, the IC50 [29] was > 4 µM and the IC50 [30] was > 4 µM. The IC50 [31] was > 4 µM, the IC50 [32] was > 4 µM and the IC50 [33] was > 4 µM. The IC50 [34] was > 4 µM, the IC50 [35] was > 4 µM and the IC50 [36] was > 4 µM. For the same compound, the IC50 [37] was > 4 µM.

With `O=C1NC(=O)c2c1c(-c1ccccc1Cl)cc1[nH]c3ccc(O)cc3c21` the IC50 [1] was > 2 µM, the IC50 [2] was > 2 µM and the IC50 [3] was > 2 µM. For the same compound, the IC50 [4] was > 2 µM, the IC50 [5] was 0.953 µM and the IC50 [6] was > 2 µM. For the same compound, the IC50 [7] was > 2 µM, the IC50 [8] was > 2 µM and the IC50 [9] was > 2 µM. For the same compound, the IC50 [10] was 1 µM, the IC50 [11] was > 2 µM and the IC50 [12] was > 2 µM. For the same compound, the IC50 [13] was > 2 µM, the IC50 [14] was > 2 µM and the IC50 [15] was > 2 µM. For the same compound, the IC50 [16] was > 2 µM, the IC50 [17] was > 2 µM and the IC50 [18] was > 2 µM. For the same compound, the IC50 [19] was > 2 µM, the IC50 [20] was > 2 µM and the IC50 [21] was > 2 µM. The IC50 [22] was > 2 µM, the IC50 [23] was > 2 µM and the IC50 [24] was > 2 µM. For the same compound, the IC50 [25] was > 2 µM, the IC50 [26] was > 2 µM and the IC50 [27] was > 2 µM. For the same compound, the IC50 [28] was > 2 µM, the IC50 [29] was > 2 µM and the IC50 [30] was 1.72 µM. The IC50 [31] was > 2 µM, the IC50 [32] was > 2 µM and the IC50 [33] was > 2 µM. For the same compound, the IC50 [38] was > 2 µM, the IC50 [39] was 0.542 µM and the IC50 [34] was > 2 µM. For the same compound, the IC50 [35] was 1.15 µM and the IC50 [36] was > 2 µM.

For `CN(C)CCOc1ccc(-c2nc(-c3ccncc3)c(-c3ccc4c(c3)CC/C4=N\O)[nH]2)cc1` [SB590885], the IC50 [1] was > 5 µM, the IC50 [2] was > 5 µM and the IC50 [3] was > 5 µM. For the same compound, the IC50 [4] was > 5 µM, the IC50 [5] was > 5 µM and the IC50 [6] was > 5 µM. For the same compound, the IC50 [7] was > 5 µM, the IC50 [8] was > 5 µM and the IC50 [9] was > 5 µM. The IC50 [10] was 1.11 µM, the IC50 [11] was > 5 µM and the IC50 [12] was > 5 µM. For the same compound, the IC50 [13] was > 5 µM, the IC50 [14] was > 5 µM and the IC50 [15] was > 5 µM. The IC50 [16] was > 5 µM, the IC50 [17] was > 5 µM and the IC50 [18] was > 5 µM. The IC50 [19] was > 5 µM, the IC50 [20] was > 5 µM and the IC50 [21] was > 5 µM. The IC50 [22] was > 5 µM, the IC50 [23] was > 5 µM and the IC50 [24] was > 5 µM. The IC50 [25] was > 5 µM, the IC50 [26] was > 5 µM and the IC50 [27] was > 5 µM. The IC50 [28] was > 5 µM, the IC50 [29] was > 5 µM and the IC50 [30] was > 5 µM. The IC50 [31] was > 5 µM, the IC50 [32] was > 5 µM and the IC50 [33] was > 5 µM. The IC50 [38] was > 5 µM, the IC50 [34] was > 5 µM and the IC50 [35] was > 5 µM. The IC50 [36] was > 5 µM and the IC50 [37] was 1.8 µM.

With `O=S(=O)(O)c1ccc2cc(/N=N/c3cc(S(=O)(=O)O)c4cccnc4c3O)ccc2c1` the IC50 [40] was > 16 µM, the IC50 [1] was > 16 µM and the IC50 [2] was > 16 µM. The IC50 [3] was > 16 µM, the IC50 [4] was > 16 µM and the IC50 [41] was > 16 µM. For the same compound, the IC50 [5] was > 16 µM, the IC50 [6] was > 16 µM and the IC50 [7] was > 16 µM. The IC50 [8] was > 16 µM, the IC50 [9] was > 16 µM and the IC50 [10] was > 16 µM. For the same compound, the IC50 [11] was > 16 µM, the IC50 [12] was > 16 µM and the IC50 [13] was > 16 µM. The IC50 [14] was > 16 µM, the IC50 [42] was > 16 µM and the IC50 [43] was > 16 µM. For the same compound, the IC50 [44] was > 16 µM, the IC50 [45] was > 16 µM and the IC50 [16] was > 16 µM. For the same compound, the IC50 [17] was > 16 µM, the IC50 [46] was > 16 µM and the IC50 [47] was > 16 µM. The IC50 [18] was > 16 µM, the IC50 [19] was 14.9 µM and the IC50 [20] was > 16 µM. The IC50 [48] was > 16 µM, the IC50 [49] was > 16 µM and the IC50 [50] was > 16 µM. The IC50 [23] was > 16 µM, the IC50 [24] was > 16 µM and the IC50 [25] was > 16 µM. The IC50 [51] was > 16 µM, the IC50 [52] was > 16 µM and the IC50 [26] was > 16 µM. The IC50 [27] was > 16 µM, the IC50 [53] was > 16 µM and the IC50 [54] was > 16 µM. For the same compound, the IC50 [28] was > 16 µM, the IC50 [29] was > 16 µM and the IC50 [30] was > 16 µM. For the same compound, the IC50 [55] was > 16 µM, the IC50 [31] was > 16 µM and the IC50 [32] was > 16 µM. For the same compound, the IC50 [33] was > 16 µM, the IC50 [38] was > 16 µM and the IC50 [39] was > 16 µM. For the same compound, the IC50 [56] was > 16 µM, the IC50 [57] was > 16 µM and the IC50 [34] was > 16 µM. The IC50 [35] was > 16 µM, the IC50 [36] was > 16 µM and the IC50 [37] was > 16 µM. For the same compound, the IC50 [58] was > 16 µM.
